Reference: paper PMC9465256, “Discovering monoacylglycerol lipase inhibitors by a combination of fluorogenic substrate assay and activity-based protein profiling” (Frontiers in Pharmacology, 2022)
Where two headings read alike, the source gives them in different places.

Columns and labels:
[1] = target: T1, human MAGL (Homo sapiens, UniProt Q99685); experiment: MAGL activity assay (AA-HNA fluorogenic substrate); type: biochemical
T1 construct: expressed in transfected cells; host or cells: HEK293T (transient transfection; membrane fraction)
T1 sequence (Q99685 1-303): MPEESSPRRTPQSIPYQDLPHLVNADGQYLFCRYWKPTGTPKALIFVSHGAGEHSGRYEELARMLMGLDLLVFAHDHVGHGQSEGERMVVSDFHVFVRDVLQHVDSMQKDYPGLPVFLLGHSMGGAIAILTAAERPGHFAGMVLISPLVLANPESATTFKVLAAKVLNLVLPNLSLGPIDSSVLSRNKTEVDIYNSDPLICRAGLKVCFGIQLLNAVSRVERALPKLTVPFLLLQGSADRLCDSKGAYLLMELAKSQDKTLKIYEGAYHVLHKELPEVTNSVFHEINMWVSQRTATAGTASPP
Method in brief: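 Membranes from transiently transfected HEK293T cells overexpressing MAGL were preincubated with inhibitor for 30 min in 40 mM HEPES pH 7.5 with 0.1 mg/ml BSA. AA-HNA substrate was then added (10 µl of 200 µM stock), and fluorescence was read every minute for 30 min. Activity was taken from the slope between 5 and 15 min.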

[2] = tested on: OVCAR-3 cells; experiment: Cell viability assay (CCK-8), OVCAR-3; type: cell-based; conditions: OVCAR-3, 48 h; for IC50: Homo sapiens, read-out: Antiproliferation activity (pIC50 ± SEM) OVCAR-3 (converted)
Description: (§1) Various cancer cell lines, including human colon cancer cell line HT-29, ovarian cell line OVCAR-3, melanoma cell line B16-F10, skin squamous cancer cells A431, cervical cancer cells Hela, lung cancer cell lines A549, H1975, and HCC827, were purchased from American type culture collection (ATCC). A431, H1975, B16-F10, OVCAR-3, HT-29, HCC827, Hela, and A549 cells were cultured in Dulbecco’s modified Eagle medium (DMEM, Gibco) containing 10% fetal bovine serum (FBS, Gibco), penicillin (100 U/ml) and streptomycin (100 μg/ml). All cell lines were maintained in a humidified 37°C incubator with 5% CO2. The medium was refreshed every 2–3 days and the cells were passaged at ∼90% confluence by adding the fresh medium, followed by vigorously pipetting the resuspend cells. Of note, the cells were only washed with PBS when a significant number of dead cells were observed.
(§2) The antiproliferation activity of the compounds against the cancer cell lines was evaluated using Cell Counting Kit-8. Briefly, cells (∼1,000 per well) in 100 µl of culture medium were plated in a 96-well plate for 24 h and 100 µl of medium with different concentrations of the tested compounds was added to each well for 48 h. Then 10 μl of CCK8 solution (#CK04, Dojindo) was added and incubated at 37°C for 2 h. The absorbance of each well was measured with a plate reader (BioTeck) at 450 nm. Cell viability was calculated as follows: cell viability (%) = [(As-Ab)/(Ac-Ab)] × 100. Among them, As represents the absorbance of experimental wells, Ab represents the absorbance of blank wells and Ac represents the absorbance of control wells. The experiments were repeated at least three times and IC50 values were determined by plotting a log(inhibitor) v. s normalized response (Variable slope) dose–response curve generated using GraphPad Prism software.

[3] = tested on: HT-29 cells; experiment: Cell viability assay (CCK-8), HT-29; type: cell-based, human; conditions: HT-29, 48 h; for IC50: Homo sapiens, read-out: Antiproliferation activity (pIC50 ± SEM) HT-29 (converted)
Description: as §1, §2

[4] = tested on: HCC827 cells; experiment: Cell viability assay (CCK-8), HCC827; type: cell-based; conditions: HCC827, 48 h; for IC50: Homo sapiens, read-out: Antiproliferation activity (pIC50 ± SEM) HCC827 (converted)
Description: as §1, §2

[5] = tested on: A549 cells; experiment: Cell viability assay (CCK-8), A549; type: cell-based; conditions: A549, 48 h; for IC50: Homo sapiens, read-out: Antiproliferation activity (pIC50 ± SEM) A549 (converted)
Description: as §1, §2

[6] = tested on: panel of cancer cell lines (A431, H1975, B16-F10, OVCAR-3, HT-29, HCC827, Hela, A549); experiment: Cell viability assay (CCK-8), panel of eight cancer cell lines; type: cell-based; conditions: 48 h; for antiproliferative screening across the cell line panel: 20 µM
Description: as §1, §2

[7] = 100 µM, AA-HNA substrate assay, Supplementary Table 1, read-out: MAGL Inhibition (%)

SMILES	activity [1, 7] [%]	Antiproliferation activity (pIC50 ± SEM) OVCAR-3 [2]	Antiproliferation activity (pIC50 ± SEM) HT-29 [3]	Antiproliferation activity (pIC50 ± SEM) HCC827 [4]	Antiproliferation activity (pIC50 ± SEM) A549 [5]	antiproliferative screening across the cell line panel [6]	inhibition at 100 µM ([1]; 100 µM, AA-HNA assay) [%]	IC50 [2] [µM]	IC50 [3] [µM]	IC50 [4] [µM]	IC50 [5] [µM]	activity at 100 µM [1, 7] [%]	IC50 ([1]; printed in Figure 3B-D, read-out: IC50 (MAGL, AA-HNA assay)) [µM]	IC50 ([1]; recombinant human MAGL, AA-HNA assay, average ± SEM, n = 4, read-out: MAGL inhibition (pIC50) (converted)) [µM]	IC50 ([6]; CCK-8, read-out: pIC50 towards all eight cancer cell lines (converted)) [µM]
Cl.N=c1ccn2c(n1)O[C@H]1[C@H](O)[C@@H](CO)O[C@H]12 [compound 1, Cyclocytidine HCl]	31.7	5.7 ± 0.3	<5	5.1 ± 0.2	6.3 ± 0.2	appreciable inhibition against almost all the tested cell lines									
O=c1cc(-c2ccc(O)cc2)oc2cc(O)cc(O)c12 [compound 9, Apigenin]						neglectable antiproliferative behavior to other cell lines	> 80	> 10	> 10	> 10	> 10				
COc1ccc2cc3[n+](cc2c1OC)CCc1cc2c(cc1-3)OCO2 [compound 17, Berberine chloride]								> 10	> 10	> 10	> 10	82.8			
C[C@H]1COC2=C1C(=O)C(=O)c1c2ccc2c1CCCC2(C)C [compound 23, Cryptotanshinone]						appreciable inhibition against almost all the tested cell lines	> 80	5.01	10	6.31	3.16	11.2	11	12.6	≤ 10
COc1ccc(C(C)=O)c(O)c1 [compound 64, Paeonol]						selectively inhibited cell proliferation of A431 over other cell lines		> 10	> 10	> 10	> 10	102			
